These are literature values, as cited in patent publication US20070203145A1, “ZOPICLONE RESOLUTION” (priority 2006, published 2007).

For data set [1] the following is noted: compared with racemic zopiclone; per U.S. Pat. No. 6,444,673.
The conditions of data set [2]: compared with racemic zopiclone; per U.S. Pat. No. 6,444,673. This is another data set of the same source.

Turning to `CN1CCN(C(=O)O[C@H]2c3nccnc3C(=O)N2c2ccc(Cl)cn2)CC1` [S-zopiclone, Eszopiclone], in data set [1], the “toxicity relative to the racemic mixture” value is reported as “less toxicity”. Also, in data set [2], the “activity relative to the racemic mixture” value is given as “twice the activity of the racemic mixture”.
